Entries after “also recorded” stand apart in the source; their conditions may differ.
Key:
[1] = tested on: in vivo cancer and cancer stem cell models; conditions: regardless of anatomic location; cited from earlier work
B78 melanoma = assay: ^124I-NM404 PET/CT imaging; format: in vivo, mouse; conditions: IV; ~200 mm^3 B78 tumor; image at 71 h
Text: FIG. 5 is an image showing selective uptake of ^124I-NM404 by B78 melanoma. A mouse bearing a ˜200 mm^3 B78 tumor received IV ^124I-NM404 and had serial PET/CT scans done.
^131I-NM404 has shown selective uptake in vitro in >95% of tumor lines (human and mouse), with poor uptake by non-malignant cells, and with similar tumor specificity seen in vivo. This includes selective uptake in vivo with the B78 tumor (FIG. 5). In our preliminary dosimetry study, we gave ^124I-NM404 to C57BL/6 mice and characterized the time course of TRT exposure by serial PET/CT imaging (as in FIG. 5). […] After those four weeks, the remaining TRT dose to the B78 tumor would be less than 0.25 Gy. We will replicate the data we obtained in our 2-tumor model using xRT (FIG. 3), but use the lowest possible dose of targeted ^131I-NM404 TRT to enable effective elimination of tumor-induced tolerance at all sites of distant disease. However, unlike xRT, which delivers all dose in minutes and is then done, TRT deposits dose over time, depending upon both the biological and physical half-life of the targeted isotope (8 day t½ for ^131I). We want an initial TRT effect at the distant tumor sites to eradicate immune tolerance; however we want the immunosuppressive TRT effect to then be minimal when we give the IT-IC to induce ADCC and the in situ vaccine anti-tumor effects. […]

[2] = tested on: radiosensitive lymphoma tumor; assay: ^131I-NM404 in mice bearing a radiosensitive lymphoma tumor; format: in vivo; conditions: ~2 Gy equivalent dose
Text: (§1) In order to then determine if a ˜2 Gy equivalent dose of ^131I-NM404 would have the desired effects against intratumor lymphoid cells (particularly Tregs), 2 separate approaches have been pursued.

B78 tumor tissue = assay: RT-PCR gene expression of immune signatures in tumor tissue after TRT; format: in vivo, mice; conditions: TRT alone; pretreatment and 8 d intervals
Description: Finally, to characterizing the immunological effects of TRT on the immune cells within tumors, we have treated B78 bearing mice with ^131I-NM404 and collected tumor tissue at pretreatment and at half-life (8 d) intervals thereafter. These tissues were then analyzed by RT-PCR for gene expression of a panel of immune signatures.

B78 tumor [3] = assay: Monte Carlo dosimetry from serial ^124I-NM404 PET/CT; format: in vivo, C57BL/6 mice
Text: (§2) ^131I-NM404 has shown selective uptake in vitro in >95% of tumor lines (human and mouse), with poor uptake by non-malignant cells, and with similar tumor specificity seen in vivo. This includes selective uptake in vivo with the B78 tumor (FIG. 5). In our preliminary dosimetry study, we gave ^124I-NM404 to C57BL/6 mice and characterized the time course of TRT exposure by serial PET/CT imaging (as in FIG. 5). […] After those four weeks, the remaining TRT dose to the B78 tumor would be less than 0.25 Gy. We will replicate the data we obtained in our 2-tumor model using xRT (FIG. 3), but use the lowest possible dose of targeted ^131I-NM404 TRT to enable effective elimination of tumor-induced tolerance at all sites of distant disease. However, unlike xRT, which delivers all dose in minutes and is then done, TRT deposits dose over time, depending upon both the biological and physical half-life of the targeted isotope (8 day t½ for ^131I). We want an initial TRT effect at the distant tumor sites to eradicate immune tolerance; however we want the immunosuppressive TRT effect to then be minimal when we give the IT-IC to induce ADCC and the in situ vaccine anti-tumor effects. This is essential to allow full tumor destruction at all sites.
(§3) Using the dosimetry calculations from our preliminary data, we estimated that a dose of 3 μCi of ^131I-NM404, should deliver an equivalent of ˜0.2 Gy to the tumor site, a dose that we hypothesized should not be immunosuppressive and should not prevent lymphocyte-mediated tumor destruction. As noted above, this is the dose we estimated would remain yet to be delivered 28 days after an initial ^131I-NM404 dose of 60 μCi. We thus evaluated groups of mice bearing a single 200 mm^3 B78 tumor. On day 0, all mice got 12 Gy xRT to their tumor, and on days 6-10, all got 50 mcg/d of IT-IC. One group also got 3 μCi of ^131I-NM404 on d-0 (˜0.2 Gy). […] We thus hypothesize that if we use an initial dose of 60 μCi of ^131I-NM404 TRT on day-22, it would effectively block the tolerogenic effect of distant tumors, yet enable xRT on day 0 and IT-IC on days 6-10 (28 d after the TRT) to the first tumor to function as an in situ vaccine, inducing an adaptive response that then eradicates all tumors.
Based on the preliminary data described above in Examples 1-4, studies have been done to move these concepts into in vivo testing using TRT. […] This was done in order to estimate the amount of ^131I-NM404 that would be needed to approximate ˜2 Gy of xRT.
In most clinical scenarios, it is not feasible to deliver external beam, even low dose, to all tumor sites without eliciting marked bone marrow depletion and leukopenia that would result in immunosuppression. […]

B78 tumors = assay: low dose ^131I-NM404 TRT: blood counts and tumor infiltrating T cells; format: in vivo, C57BL/6 mice
Text: as §1
A second approach involved treating mice with B78 tumors with these same doses of ^131I-NM404. […] This observation again supports our hypothesis that it will be feasible to use TRT to overcome Treg-mediated CIT in order to rescue an in situ vaccine effect in animals bearing multiple tumors.
In most clinical scenarios, it is not feasible to deliver external beam, even low dose, to all tumor sites without eliciting marked bone marrow depletion and leukopenia that would result in immunosuppression. Here we tested whether TRT could be administered systemically to specifically deplete tumor infiltrating suppressive immune cells (Tregs), without triggering systemic immune cell depletion and leukopenia. Dosimetry studies in this B78 melanoma tumor model were performed using positron-emitting ^124I-NM404 confirm tumor-selective uptake of NM404 (FIG. 12A). C57BL/6 mice bearing B78 tumors were treated with 60 μCi ^131I-NM404. This activity approximates the amount of ^131I-NM404 necessary to deliver ˜2 Gy TRT to a B78 tumor. Peripheral blood and tumor samples were collected in untreated control mice (C) and at 8 day intervals (T1=d8, T2=d16, T3=d24, T4=d32) thereafter.

two B78 tumors = assay: ^131I-NM404 + xRT + IT-IC in mice bearing two B78 tumors; format: in vivo, C57BL/6 mice; conditions: 60 μCi day 1, 12 Gy xRT to primary day 8, IT-IC days 13-17
Text: Using the data summarized in Examples 7 and 8, a study was done in mice bearing 2 separate B78 tumors. Mice received the estimated required systemic ^131I-NM404 dose followed by xRT and local immunotherapy to the in situ vaccine site. […] Further testing, and modification of some of the experimental variables, is underway in order to try to maximize the desired effect of blocking CIT without suppressing the in situ vaccine effect. More details regarding these experiments are disclosed in Example 10 below.
Given the capacity of low dose ^131I-NM404 TRT to deplete tumor-infiltrating Tregs without rendering a mouse leukopenic, we tested whether low dose ^131I-NM404 might effectively overcome concomitant immune tolerance. C57BL/6 mice bearing two B78 tumors were treated with 60-μCi ^131I-NM404 on day 1 (NM404), as indicated. After one half-life (day 8), animals received 12 Gy xRT or no xRT to the primary tumor (in situ vaccine site). Control mice receiving no ^131I-NM404 were treated to the secondary tumor as indicated (0, 2, or 12 Gy). Mice received daily IT injections of IC to the primary tumor (in situ vaccine site), as indicated, on days 13-17.

B78 tumor [4] = assay: ^131I-NM404 with xRT+IT-IC, single B78 tumor; format: in vivo, mice
Text: as §3
Using the data summarized in Examples 7 and 8, a study was done in mice bearing 2 separate B78 tumors. Mice received the estimated required systemic ^131I-NM404 dose followed by xRT and local immunotherapy to the in situ vaccine site. […]

[5] = tested on: tumor lines (human and mouse); assay: selective uptake in vitro in tumor lines; format: cell-based; conditions: poor uptake by non-malignant cells
Text: as §2

Tregs = assay: Treg depletion by diphtheria toxin in DEREG mice with primary and secondary B78 tumors treated with xRT+IT-IC; format: in vivo; conditions: IP diphtheria toxin vs PBS, with xRT+IT-IC to primary tumor
[6] = 3 and 4 half-life time points, vs untreated baseline and 2nd half-life

In the case of C[N+](C)(C)CCOP(=O)([O-])OCCCCCCCCCCCCCCCCCCc1ccc(I)cc1 [NM404, 18-(p-iodophenyl)octadecyl phosphocholine], the “tumor uptake / targeting across in vivo models” value [1] is listed as “near universal tumor uptake in all but three of over 70 in vivo models”.
For C[N+](C)(C)CCOP(=O)([O-])OCCCCCCCCCCCCCCCCCCc1ccc([124I])cc1 [^124I-NM404], the “tumor uptake on PET/CT” value (B78 melanoma) was “Excellent tumor uptake; also recorded: selective uptake by the tumor with some residual background uptake by the heart and liver”.
For C[N+](C)(C)CCOP(=O)([O-])OCCCCCCCCCCCCCCCCCCc1ccc([131I])cc1 [^131I-NM404], the lymphoid tumor response [2] was “potent lymphoid tumor shrinkage/dose-dependent inhibition”, the “gene expression of immune signatures” value (B78 tumor tissue) was “striking changes in expression of tumor cell markers of immunsusceptibility and in genes normally expressed only by immune cells” and the “dose delivered to the tumor site” value (B78 tumor [3]; 3 μCi) was roughly 0.2 Gy. For the same compound, the “remaining TRT dose to the B78 tumor” value (B78 tumor [3]; after four weeks, initial 60 μCi) was “less than 0.25 Gy”, the “activity necessary to deliver ~2 Gy TRT to a B78 tumor” value (B78 tumor [3]; mouse, in vivo) was roughly 60 μCi and the “activity needed to deliver ~3 Gy to an established B78 tumor” value (B78 tumor [3]; over a four week period of decay) was roughly 60 μCi. For the same compound, the “intratumor effector CD8+ T cells” value (B78 tumors; 2 half-life time point) was “decrease in intratumor effector CD8+ T cells”, the “intratumor FoxP3+ Tregs” value (B78 tumors; 2 half-lifes after TRT) was “decrease in intratumor FoxP3+ Tregs” and the “intratumor CD8+ effector T cells” value (B78 tumors; [6]) was “increase in intratumor CD8+ effector T cells”. For the same compound, the “intratumor Tregs” value (B78 tumors; [6]) was “further decline in the levels of intratumor Tregs”, the “level of tumor infiltrating CD8+ effector T cells” value (B78 tumors; 60 μCi, d8-d32) was “did not significantly affect the level of tumor infiltrating CD8+ effector T cells” and the “tumor infiltrating FoxP3+ Tregs” value (B78 tumors; 60 μCi, d8-d32) was “significantly depleted”. The systemic leukopenia (B78 tumors; 60 μCi, peripheral blood d8-d32) was “did not result in any significant systemic leukopenia”, the “circulating lymphoid cells (peripheral complete blood counts)” value (B78 tumors; ~2 Gy equivalent dose) was “did not cause either substantial shrinkage/slowing of the B78 tumor or any evident depletion of circulating lymphoid cells” and the B78 tumor growth (B78 tumors; ~2 Gy equivalent dose, TRT alone) was “did not cause either substantial shrinkage/slowing of the B78 tumor”. For the same compound, the “systemic lymphopenia (peripheral complete blood count)” value (B78 tumors; ~2 Gy equivalent dose, half-life (8 d) intervals) was “no systemic lymphopenia at any time point”, the “concomitant immune tolerance (CIT) / primary and secondary tumor response” value (two B78 tumors) was “did appear to attenuate CIT; also recorded: effectively overcomes concomitant immune tolerance and rescues the systemic anti-tumor effect of in situ vaccination” and the “tumor eradication by xRT+IT-IC with vs without TRT” value (B78 tumor [4]; 3 μCi on d-0 (~0.2 Gy), 12 Gy xRT day 0, IT-IC days 6-10) was “same degree of tumor eradication; also recorded: equally effective”. For the same compound, the “local in situ vaccine effect” value (B78 tumor [4]; estimated required systemic TRT dose, mice with one tumor) was “did not appear to interfere with the local in situ vaccine effect”, the “tumor uptake / targeting across in vivo models” value [1] was “nearly universal tumor targeting properties in over 60 in vivo cancer and cancer stem cell models” and the “tumor lines with selective uptake in vitro” value [5] was greater than 95%.
With diphtheria toxin the “primary and secondary tumor response” value (Tregs) was “improved primary (FIG. 9B) and secondary (FIG. 9C) tumor response”.

— US11633506B2, “Using targeted radiotherapy (TRT) to drive anti-tumor immune response to immunotherapies” (Wisconsin Alumni Research Foundation, priority 2016, dated 2023)
